Results reported in patent publication US10842756B2 (BIOVIIIX S.R.L., priority 2015, dated 2020).

Columns and labels:
[1] = bolus of 600 mg of 5FU, cited from earlier work
[2] = Release kinetics of the drug by micro-dialysis (QuixSep) into PBS pH 7.4; format: physicochemical; conditions: 5FU solution in PBS at 200 μg/ml; up to 60 minutes; ambient temperature
Method: In particular, as a receiving step a PBS (phosphate buffered saline) at pH=7.4 was analysed. The method used is micro-dialysis by means of a system known as QuixSep® with a Spectra/pore membrane, MWCO=3500 Da.
The system was maintained under constant magnetic stirring, at ambient temperature, taking samples of the receiving step at predetermined times and re-integrating the collected volume.
The samples were analysed and the values obtained were plotted considering the single collections and re-integrations from the preceding step, so as to obtain a dissolution/release profile.
The data relating to the release percentage were calculated on the basis of a drug loading determined by LC-MS/MS analysis.

For O=c1[nH]cc(F)c(=O)[nH]1 [Batch 5FU, 5-fluorouracil], the “plasmatic concentration of 5FU” value ([1]; after 25 minutes) is given as 10 µg/mL, the Cmax ([1]; body surface of 1.7) is given as “about 50 μg/ml” and the “dissolution of the free drug” value [2] is given as 70%.
